According to publication PMC8620910, “Design and Synthesis of (2-oxo-1,2-Dihydroquinolin-4-yl)-1,2,3-triazole Derivatives via Click Reaction: Potential Apoptotic Antiproliferative Agents” (Molecules, 2021):

Columns and labels:
[1] = Cell viability assay (MTT) on MCF-10A; format: cell-based; conditions: human, MCF-10A mammary epithelial cells, four days
Procedure: A human mammary gland epithelial cell line was used in the cell viability assay (MCF-10A). MCF-10A cells were incubated with compounds 8a–l for four days, and cell viability was determined using an MTT assay.
An MTT assay was performed to investigate the effect of the synthesized compounds on mammary epithelial cells (MCF-10A) at a concentration of 50 µM for the tested compound. The cells were propagated in a medium consisting of Ham’s F-12 medium/Dulbecco’s modified Eagle’s medium (DMEM) (1:1) supplemented with 10% fetal calf serum, 2 mM glutamine, insulin (10 μg/mL), hydrocortisone (500 ng/mL), and epidermal growth factor (20 ng/mL). Trypsin ethylenediamine tetra acetic acid (EDTA) was used to pass the cells every 2–3 days. Ninety-six-well flat-bottomed cell culture plates were used to seed the cells at a density of 10^4 cells mL^−1. The medium was aspirated from all the wells of culture plates after 24 h followed by the addition of synthesized compounds (in 200 μL medium to yield a final concentration of 0.1% (v/v) dimethylsulfoxide) into individual wells of the plates. Four wells were designated to a single compound. The plates were allowed to incubate at 37 °C for 96 h. Afterward, the medium was aspirated, and 3-[4,5-dimethylthiazol-2-yl]-2,5-diphenyltetrazolium bromide (MTT) (0.4 mg/mL) in the medium was added to each well and subsequently incubated for 3 h. The medium was aspirated, and 150 μL dimethyl sulfoxide (DMSO) was added to each well. The plates were vortexed, followed by the measurement of absorbance at 540 nm on a microplate reader. The results were presented as inhibition (%) of proliferation compared to controls comprising 0.1% DMSO.

[2] = tested on: epithelial cancer cell line (A-549); test: Anti-proliferative propidium iodide fluorescence assay, A-549; format: cell-based; conditions: Homo sapiens, A549; read-out: Anti-Proliferative Activity IC50 ± SEM, A-549
Procedure: (§1) Tested 8a–l compounds were assessed for their anti-proliferative activity against four human cancer cell lines, including the pancreatic cancer cell line (Panc-1), breast cancer cell line (MCF-7), colon cancer cell line (HT-29), and epithelial cancer cell line (A-549) using propidium iodide fluorescence assay and the reference doxorubicin. Results (IC50) are illustrated in Table 3.
(§2) To explore the anti-proliferative potential of compounds, propidium iodide fluorescence assay was performed using different cell lines such as Panc-1 (pancreas cancer cell line), MCF-7 (breast cancer cell line), HT-29 (colon cancer cell line), and A-549 (epithelial cancer cell line), respectively. To calculate the total nuclear DNA, a fluorescent dye (propidium iodide, PI) is used to attach to the DNA, thus offering a quick and precise technique. PI cannot pass through the cell membrane, and its signal intensity can be considered as directly proportional to the quantity of cellular DNA. Cells whose cell membranes are damaged or have changed permeability are counted as dead ones. The assay was performed by seeding the cells of different cell lines at a density of 3000–7500 cells/well (in 200 μL medium) in culture plates followed by incubation for 24 h at 37 °C in humidified 5%CO2/95% air atmospheric conditions. The medium was removed; the compounds were added to the plates at 10 μM concentrations (in 0.1% DMSO) in triplicates, followed by incubation for 48h. DMSO (0.1%) was used as a control. After incubation, the medium was removed, followed by the addition of PI (25 μL, 50 μg/mL in water/medium) to each well of the plates. At −80 °C, the plates were allowed to freeze for 24 h, followed by thawing at 25 °C. A fluorometer (Polar-Star BMG Tech, Beijing, China) was used to record the readings at excitation and emission wavelengths of 530 and 620 nm for each well. The percentage cytotoxicity of compounds was calculated using the following formula: % Cytotoxicity=AC−ATC/AC×100 where ATC = absorbance of treated cells and AC = absorbance of control. Doxorubicin was used as a positive control in the assay.

[3] = tested on: breast cancer cell line (MCF-7); test: Anti-proliferative propidium iodide fluorescence assay, MCF-7; format: cell-based; conditions: Homo sapiens, MCF7; read-out: Anti-Proliferative Activity IC50 ± SEM, MCF-7
Procedure: as §1, §2

[4] = tested on: pancreatic cancer cell line (Panc-1); test: Anti-proliferative propidium iodide fluorescence assay, Panc-1; format: cell-based; conditions: Homo sapiens, read-out: Anti-Proliferative Activity IC50 ± SEM, Panc-1
Procedure: as §1, §2

[5] = tested on: colon cancer cell line (HT-29); test: Anti-proliferative propidium iodide fluorescence assay, HT-29; format: cell-based; conditions: Homo sapiens, read-out: Anti-Proliferative Activity IC50 ± SEM, HT-29
Procedure: as §1, §2

[6] = tested on: A-549, MCF-7, Panc-1 and HT-29 cell lines; test: Average anti-proliferative IC50 over the four cancer cell lines; format: cell-based, human; conditions: for IC50: Homo sapiens, average of A-549, MCF-7, Panc-1, HT-29; for fold decrease in activity relative to 8c: from average IC50
Procedure: as §1, with “doxorubicin.” for “doxorubicin. Results (IC50) are illustrated in Table 3.”
as §2

active Caspase 3 = test: Caspase 3 activation assay in MCF-7
Procedure: All reagents were allowed to reach room temperature before use. All liquid reagents were gently mixed before use. The number of 8-well strips needed for the assay was determined. These were inserted into the frame(s) for current use. A total of 100 μL of the Standard Diluent Buffer was added to the zero standard wells. Well(s) reserved for chromogen blank were left empty. A total of 100 μL of standards and controls or diluted samples was added to the appropriate microtiter wells. The sample dilution chosen was optimized for each experimental system. The side of the plate was gently tapped on to mix. Wells were covered with a plate cover and incubated for 2 h at room temperature. […]
The working dilution was prepared as described in Preparing IgG HRP. […] The incubation time for chromogen substrate was determined by the microtiter plate reader used.
Many plate readers have the capacity to record a maximum optical density (O.D.) of 2.0. The O.D. values were monitored, and the substrate reaction was stopped before the O.D. of the positive wells exceeds the limits of the instrument. The O.D. values at 450 nm could only be read after the Stop Solution had been added to each well. […] The absorbance of each well was read at 450 nm, having blanked the plate reader against a chromogen blank composed of 100 μL each of Stabilized Chromogen and Stop Solution. […]

IC50 [2] [µM]	IC50 [3] [µM]	IC50 [4] [µM]	IC50 [5] [µM]	IC50 [6] [µM]	fold reduction of the average IC50 value relative to 8a ([6]; replacement of NH by N-CH3)	SMILES	viability at 96 h, 50 µM [1] [%]	fold decrease in activity relative to 8c [6] [fold]	Caspase 3 Conc (active Caspase 3; MCF-7) [pg/mL]	Caspase 3 Fold Change (active Caspase 3; MCF-7, versus untreated control) [fold]
5.7 ± 0.4	5.3 ± 0.8	5.6 ± 0.6	5.7 ± 0.4	5.58	–	O=c1cc(-n2cc(COc3ccc(C(c4c(O)c5ccccc5[nH]c4=O)c4c(O)c5ccccc5[nH]c4=O)cc3)nn2)c2ccccc2[nH]1 [Compound 8a, 3,3’-((4-((1-(2-oxo-1,2-dihydroquinolin-4-yl)-1H-1,2,3-triazol-4-yl)methoxy)phenyl)-methylene)bis(4-hydroxyquinolin-2(1H)-one)]	89	1.5	–	–
7.6 ± 0.8	6.9 ± 0.8	7.6 ± 0.6	7.5 ± 0.4	7.4	–	Cc1ccc2[nH]c(=O)cc(-n3cc(COc4ccc(C(c5c(O)c6ccccc6[nH]c5=O)c5c(O)c6ccccc6[nH]c5=O)cc4)nn3)c2c1 [Compound 8b, 3,3’-((4-((1-(6-Methyl-2-oxo-1,2-dihydroquinolin-4-yl)-1H-1,2,3-triazol-4-yl)methoxy)phenyl)methylene)bis(4-hydroxyquinolin-2(1H)-one)]	87	2	–	–
3.9 ± 0.5	3.2 ± 0.08	4.1 ± 0.2	4.2 ± 0.2	3.85	–	COc1ccc2[nH]c(=O)cc(-n3cc(COc4ccc(C(c5c(O)c6ccccc6[nH]c5=O)c5c(O)c6ccccc6[nH]c5=O)cc4)nn3)c2c1 [Compound 8c, 3,3’-((4-((1-(6-Methoxy-2-oxo-1,2-dihydroquinolin-4-yl)-1H-1,2,3-triazol-4-yl)methoxy)phenyl)methylene)bis(4-hydroxyquinolin-2(1H)-one)]	91	–	–	–
12.9 ± 0.8	11.5 ± 1.1	11.6 ± 0.8	11.4 ± 1.2	11.8	–	Cn1c(=O)cc(-n2cc(COc3ccc(C(c4c(O)c5ccccc5[nH]c4=O)c4c(O)c5ccccc5[nH]c4=O)cc3)nn2)c2ccccc21 [Compound 8d, 3,3’-((4-((1-(1-Methly-2-oxo-1,2-dihydroquinolin-4-yl)-1H-1,2,3-triazol-4-yl)methoxy)phenyl)methylene)bis(4-hydroxyquinolin-2(1H)-one)]	89	–	–	–
2.9 ± 0.5	2.6 ± 0.8	3.1 ± 0.2	3.4 ± 0.2	3	–	COc1ccc2[nH]c(=O)c(C(c3ccc(OCc4cn(-c5cc(=O)[nH]c6ccc(C)cc56)nn4)cc3)c3c(O)c4cc(OC)ccc4[nH]c3=O)c(O)c2c1 [Compound 8f, 3,3’-((4-((1-(6-Methyl-2-oxo-1,2-dihydroquinolin-4-yl)-1H-1,2,3-triazol-4-yl)methoxy)phenyl)methylene)bis(4-hydroxy-6-methoxyquinolin-2(1H)-one)]	87	–	365.60 ± 3.20	5.57
10.7 ± 2.5	10.6 ± 2.9	10.8 ± 1.9	10.8 ± 1.6	10.7	–	COc1ccc2[nH]c(=O)c(C(c3ccc(OCc4cn(-c5cc(=O)n(C)c6ccccc56)nn4)cc3)c3c(O)c4cc(OC)ccc4[nH]c3=O)c(O)c2c1 [Compound 8h, 3,3’-((4-((1-(1-Methly-2-oxo-1,2-dihydroquinolin-4-yl)-1H-1,2,3-triazol-4-yl)methoxy)phenyl)methylene)bis(4-hydroxy-6-methoxyquinolin-2(1H)-one)]	90	–	–	–
17.9 ± 0.3	17.8 ± 1.6	17.6 ± 1.5	17.9 ± 1.1	17.8	–	Cn1c(=O)c(C(c2ccc(OCc3cn(-c4cc(=O)[nH]c5ccccc45)nn3)cc2)c2c(O)c3ccccc3n(C)c2=O)c(O)c2ccccc21 [Compound 8i, 3,3’-((4-((1-(2-oxo-1,2-dihydroquinolin-4-yl)-1H-1,2,3-triazol-4-yl)methoxy)phenyl)-methylene)bis(4-hydroxy-1-methylquinolin-2(1H)-one)]	90	–	–	–
22.5 ± 0.2	22.1 ± 0.1	22.4 ± 0.2	22.9 ± 0.6	22.5	–	Cc1ccc2[nH]c(=O)cc(-n3cc(COc4ccc(C(c5c(O)c6ccccc6n(C)c5=O)c5c(O)c6ccccc6n(C)c5=O)cc4)nn3)c2c1 [Compound 8j, 3,3’-((4-((1-(6-Methyl-2-oxo-1,2-dihydroquinolin-4-yl)-1H-1,2,3-triazol-4-yl)methoxy)phenyl)methylene)bis(4-hydroxy-1-methylquinolin-2(1H)-one)]	81	–	–	–
14.5 ± 2.6	13.6 ± 2.2	14.6 ± 2.9	14.8 ± 1.4	14.4	–	COc1ccc2[nH]c(=O)cc(-n3cc(COc4ccc(C(c5c(O)c6ccccc6n(C)c5=O)c5c(O)c6ccccc6n(C)c5=O)cc4)nn3)c2c1 [Compound 8k]	90	–	–	–
25.3 ± 2.5	24.9 ± 1.8	24.5 ± 2.3	24.2 ± 1.4	24.7	at least 4 fold	Cn1c(=O)cc(-n2cc(COc3ccc(C(c4c(O)c5ccccc5n(C)c4=O)c4c(O)c5ccccc5n(C)c4=O)cc3)nn2)c2ccccc21 [Compound 8l, 3,3’-((4-((1-(1-Methyl-2-oxo-1,2-dihydroquinolin-4-yl)-1H-1,2,3-triazol-4-yl)methoxy)phenyl)methylene)bis(4-hydroxy-1-methylquinolin-2(1H)-one)]	96	–	–	–
